According to EP2226073A1, “Topical pharmaceutical composition comprising an antiseptic and arginine for wound healing” (EURO-CELTIQUE S.A., priority 2009, dated 2010):

System: Human ciliated epithelium cells
Description: Human ciliated epithelium cells were analyzed by an in vitro method which allows for determining ciliary activity or ciliary vibration. The corresponding cells were exposed and incubated with 100 µl test substance at a temperature of 37°C. After an incubation period of 5 min ciliary vibration was measured.
By using this in vitro method, a nutrient solution (Dulbeco) as a standard, a 0.2% chlorohexidine solution (a common antiseptic agent), conventional polyvidone iodine solutions (Betaisodona) of different concentrations (5.0%, 2.5%, and 1.25% PVP-iodine), and a liposomal solution containing 4.5% PVP-iodine were tested.

`[H]/N=C(\N/C(=N/[H])NCCCCCCNC(=N)NC(=N)Nc1ccc(Cl)cc1)Nc1ccc(Cl)cc1` [chlorohexidine] was tested, and the ciliary vibration was “decrease of the measured ciliary vibration”.
